Test results from patent EP3442966B1, “NOVEL N-[(PYRIMIDINYLAMINO)PROPANYL]- AND N-[(PYRIDINYLAMINO)PROPANYL]ARYLCARBOXAMIDES” (Boehringer Ingelheim International GmbH, priority 2016, dated 2017).
pIC50: −log10 of the molar value. Where two headings read alike, the source gives them in different places.

What was measured:
human Orexin 1 receptor = target: T1, human Orexin 1 receptor (Homo sapiens, UniProt O43613); assay: Assay A: in vitro testing of OX1R potency, OX1R IP1 (HTRF) in CHO-K1/hOx1 cells; assay type: cell-based
T1 construct: stably expressing the full-length human Orexin 1 receptor; expressed in transfected cells; host or cells: CHO-K1 (CHO-K1/hOx1), co-expressing the aequorin photoprotein
T1 sequence (O43613 1-425): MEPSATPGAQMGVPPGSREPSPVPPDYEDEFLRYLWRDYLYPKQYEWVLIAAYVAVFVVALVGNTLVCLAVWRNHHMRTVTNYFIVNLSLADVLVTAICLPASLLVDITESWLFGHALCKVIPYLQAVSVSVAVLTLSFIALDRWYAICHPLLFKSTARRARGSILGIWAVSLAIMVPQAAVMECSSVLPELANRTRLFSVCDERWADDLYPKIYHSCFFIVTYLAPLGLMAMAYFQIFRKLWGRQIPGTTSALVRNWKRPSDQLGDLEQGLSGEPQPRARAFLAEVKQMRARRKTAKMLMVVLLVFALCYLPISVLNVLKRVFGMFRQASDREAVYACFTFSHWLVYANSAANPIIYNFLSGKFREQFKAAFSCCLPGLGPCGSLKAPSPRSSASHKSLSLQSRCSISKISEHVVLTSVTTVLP
Description: Activation of the orexin receptors expressed in cell lines results in an increase in intracellular IP3 concentration. IP1, a downstream metabolite of IP3, accumulates in cells following receptor activation and is stable in the presence of LiCI. Using Homogeneous Time-Resolved Fluorescence technology with Lumi4-Tb cryptate (commercially available from Cisbio Bioassay) and a suitable fluorescence plate reader. […] This technique is used to characterize pharmacological modification of the orexin receptors.
IP1 measurements are performed in CHO-K1 cells stably expressing the full-length human Orexin 1 receptor and the aequorin photoprotein. Cells are cultivated in Ham's nutrient mixture F12 medium with 10% fetal calf serum, in a 37°C, 95% humidity and 5% CO2 incubator. The CHO-K1/hOx1 cell mass is expanded to larger cell numbers. The cells are obtained as frozen cells in cryo-vials and stored until use at -150°C.
In preparation for the assay, 24 hours before the assay, the cells are thawed at 37°C and immediately diluted with cell culture medium. After centrifugation, the cell pellet is re-suspended in medium and then distributed into the assay plates with a density of 10000 cells/25 µL per well. The plates are incubated for one hour at room temperature to reduce edge effects before they are incubated for 24 hours at 37°C/5% CO2. Compounds are prepared by an 8-point serial dilution in DMSO and a final dilution step into assay buffer (HBSS with 20 mM HEPES, 0.1% BSA and 50 mM LiCl, pH 7.4) to ensure a final DMSO concentration of 1% in the assay.
On the day of the assay, cells in the plate are washed twice with 60 µL assay buffer (20 µL buffer remained in the wells after washing), followed by adding 5 µL per well of compounds diluted in assay buffer. After 15 minutes of incubation at room temperature 5 µL per well of Orexin A peptide (final concentration: 0.5 nM, and/or 50 nM for selected compounds) dissolved in assay buffer is added to the assay plate. The assay plate is incubated for 60 minutes at 37°C. Then 5 µL per well of Anti-IP1-Cryptate Tb solution and 5 µL per well of IP1-d2 dilution are added and the plate is incubated for a further 60 minutes light protected at room temperature.
8-point four parametric non-linear curve fitting and determination of IC50 values and Hill slopes is performed using a regular analysis software e.g. AssayExplorer (Accelrys).

human orexin 2 receptor = target: T2, human orexin 2 receptor (Homo sapiens, UniProt O43614); assay: Assay B: in vitro testing of OX2R potency, OX2R IP1 (HTRF) in CHO-K1/hOx2 cells; assay type: cell-based; conditions: 0.5 nM Orexin A concentration
T2 construct: stably expressing the full-length human orexin 2 receptor; expressed in transfected cells; host or cells: CHO-K1 (CHO-K1/hOx2), co-expressing the aequorin photoprotein
T2 sequence (O43614 1-444): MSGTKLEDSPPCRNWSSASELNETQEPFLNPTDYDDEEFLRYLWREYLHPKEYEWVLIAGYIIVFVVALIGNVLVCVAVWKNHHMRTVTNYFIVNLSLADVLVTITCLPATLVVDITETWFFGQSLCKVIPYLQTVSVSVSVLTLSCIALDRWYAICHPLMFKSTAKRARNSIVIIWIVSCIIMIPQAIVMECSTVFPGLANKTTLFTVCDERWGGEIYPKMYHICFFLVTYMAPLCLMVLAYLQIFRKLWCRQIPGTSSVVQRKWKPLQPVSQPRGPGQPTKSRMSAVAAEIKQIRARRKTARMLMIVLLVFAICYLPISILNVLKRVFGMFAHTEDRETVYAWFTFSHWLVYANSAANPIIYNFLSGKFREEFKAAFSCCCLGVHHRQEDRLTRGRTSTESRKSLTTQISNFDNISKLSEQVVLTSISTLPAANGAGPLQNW

OX2R [1] = target: T3, OX2R (Homo sapiens, UniProt O43614); conditions: WO2016/034882 Table 3 (Method B), cited from earlier work; for pIC50: conversion of pIC50
T3 sequence (O43614 1-444): T2 sequence (O43614 1-444)

OX1R [2] = target: T4, OX1R (Homo sapiens, UniProt O43613); assay: OX1R assay of WO2016/034882, Table 3 (Method B); assay type: cell-based; conditions: ratio from WO2016/034882 Table 3 (Method B) values
T4 sequence (O43613 1-425): T1 sequence (O43613 1-425)

OX2R [3] = target: T3, OX2R; conditions: WO2016/034882 Table 2 (Method A), cited from earlier work; for pIC50: conversion of pIC50
OX1R [4] = target: T4, OX1R; conditions: data as described in WO03/051872 (page 16-18); given as a range; cited from earlier work
OX2R [5] = target: T3, OX2R; conditions: data as described in WO03/051872 (page 16-18); given as a range; cited from earlier work
[6] = selectivity ratio, OX1R Kb at 50 nM Orexin A, OX2R Kb at 0.5 nM Orexin A

| Compound | OX2R Kb / OX1R Kb (human Orexin 1 receptor; [6]) | further results |
| --- | --- | --- |
| CCN(C(=O)c1ccc(C)c(C)c1-n1nccn1)[C@@H](C)CNc1ccc(Cl)cn1 [Example 14] | 1018 |  |
| CCN(C(=O)c1cc(C)ccc1-n1nccn1)[C@@H](C)CNc1ccc(Cl)cn1 [Example 10] | 403 |  |
| CCN(C(=O)c1cccc(F)c1-c1ncccn1)[C@@H](C)CNc1ccc(C(F)(F)F)cn1 [Example 11] | 212 |  |
| CCN(C(=O)c1cccc(F)c1-n1nccn1)[C@@H](C)CNc1ccc(C(F)(F)F)cn1 [Example 15] | 880 |  |
| CC[C@@H](CNc1ncc(C(F)(F)F)cn1)N(C)C(=O)c1nc(C)ccc1-c1ncccn1 [Ex 84 in WO2016/ 034882] |  | Kb (human orexin 2 receptor): 229 nM |
| CCN(C(=O)c1cc(F)ccc1-c1ncccn1)[C@@H](C)CNc1ncc(C(F)(F)F)cc1F [Example 13] | 438 |  |
| CC[C@@H](CNc1ncc(C(F)(F)F)cn1)N(C)C(=O)c1c(F)cccc1-n1nccn1 [Ex 91 in WO2016/ 034882] |  | Kb (human orexin 2 receptor): 313 nM; OX2R pIC50 (OX2R [1]): < 5.1; OX2R IC50 / OX1R IC50 (OX1R [2]): Table 3: 318 |
| CCN(C(=O)c1cc(OC)ccc1-n1nccn1)[C@@H](C)CNc1ncc(C(F)(F)F)cn1 [Example 4] | 736 |  |
| CCN(C(=O)c1cccc(F)c1-c1ncccn1)[C@@H](C)CNc1ccc(F)c(C(F)(F)F)n1 [Example 12] | 216 |  |
| CCN(C(=O)c1cccc(F)c1-n1nccn1)[C@@H](C)CNc1ccc(F)c(C(F)(F)F)n1 [Example 18] | 209 |  |
| CCN(C(=O)c1cccc(F)c1-n1nccn1)[C@@H](C)CNc1ncc(C(F)(F)F)cc1F [Example 16] | 560 |  |
| CC[C@@H](CNc1ccc(Cl)cn1)N(C)C(=O)c1cc(C)ccc1-n1nccn1 [Ex 1 in WO2016/ 034882] |  | pIC50 (OX2R [3]): 5.90 |
| CCN(C(=O)c1nccc(C(F)(F)F)c1-c1ccn(C)n1)[C@@H](C)COc1ccc(C(F)(F)F)cn1 [Example 19] | 230 |  |
| CCN(C(=O)c1ccc(OC)cc1-n1nccn1)[C@@H](C)CNc1ncc(C(F)(F)F)cn1 [Example 20] | 1264 |  |
| CCN(C(=O)c1cccc(F)c1-n1nccn1)[C@@H](C)CNc1ccc(Cl)cn1 [Example 17] | 268 |  |
| CCN(C(=O)c1ccc(C)cc1-n1nccn1)[C@@H](C)CNc1ncc(C(F)(F)F)cn1 [Example 5] | 1783 |  |
| CCN(C(=O)c1c(-n2nccn2)ccc(C)c1F)[C@@H](C)CNc1ncc(C(F)(F)F)cn1 [Example 1] | 529 |  |
| CC[C@@H](CNc1ncc(C(F)(F)F)cn1)N(CC)C(=O)c1nc(C)ccc1-n1nccn1 [Ex 73 in WO2016/ 034882] |  | OX2R pIC50 (OX2R [1]): < 6.0; pIC50 (OX2R [1]): < 6.00 |
| CC[C@@H](CNc1ncc(C(F)(F)F)cn1)N(C)C(=O)c1cc(Cl)ccc1-n1nccn1 [Ex 39 in WO2016/ 034882] |  | OX2R pIC50 (OX2R [3]): < 5.0; pIC50 (OX2R [3]): > 5.00; pIC50 (OX2R [1]): 5.80 |
| Cc1nc(C(=O)N(C)CCNc2ncc(Br)cn2)c(-c2ccc(F)cc2)s1 [Example 6 in WO03/051872] |  | OX1R pKb (OX1R [4]): 6.4 to 7.4; OX2R pKb (OX2R [5]): <6.6 to 7.4 |
| CC[C@@H](CNc1ccc(C(F)(F)F)cn1)N(CC)C(=O)c1nc(C)ccc1-n1nccn1 [Ex 71 in WO2016/ 034882] |  | OX2R pIC50 (OX2R [1]): 6.6; OX2R Kb / OX1R Kb (human Orexin 1 receptor): 905 |
| CCN(C(=O)c1nc(C)sc1-c1ccc(F)cc1)[C@@H](C)CNc1ncc(C(F)(F)F)cn1 [Example 8] | 367 |  |
| CCN(C(=O)c1cc(C)ccc1-n1nccn1)[C@@H](C)CNc1ncc(C(F)(F)F)cn1 [Example 2] | 379 |  |
| CCN(C(=O)c1nc(C)sc1-c1ccccc1)[C@@H](C)CNc1ncc(C(F)(F)F)cn1 [Example 6] | 527 |  |
| CCN(C(=O)c1ccc(Cl)cc1-n1nccn1)[C@@H](C)CNc1ncc(C(F)(F)F)cn1 [Example 7] | 922 |  |
